Test results: US9862690B2, “Treatment of pulmonary and other conditions” (University of Pittsburgh—of the Commonwealth System of …, priority 2013, dated 2018)

Key:
[1] = system: lung epithelial cells (BEAS2B); test: IFN-γ or IL-4/IL-13 stimulated lung epithelial cells; type: cell-based; conditions: 10 ng/ml IFN-γ or IL-4/IL-13 for 6 h
Text: It suppressed the infiltration of inflammatory cells into the airspace and lung and attenuated the expression of cytokines, chemokines, and IgE in BALF and serum.

[2] = system: chronic hypoxia-induced pulmonary hypertension in mice; test: Chronic hypoxia-induced pulmonary hypertension model; type: in vivo; conditions: 25 mg/kg nebulized during last 10 days of 3 weeks hypoxia
Protocol: CH-induced pulmonary hypertension was produced in mice by exposing them to chronic hypoxia (CH; FIO2 10%) or room air (N; control) for 3 weeks. During the last 10 days of exposure, PB141 (25 mg/kg) or vehicle (saline) was nebulized and delivered to cage air via a micropump nebulizer. Twenty-four hours following the last nebulization mice were anesthetized and the right internal jugular vein of each mouse was surgically exposed and cannulated with a pressure transducer that was advanced to record right ventricular pressure, then advanced further to measure pulmonary arterial pressure: (top left) mean pulmonary arterial pressure; (top right) right ventricular systolic pressure (RVSP); (bottom left) […]; (bottom right) right ventricular hypertrophy. Data are representative of one of two independent experiments with n=4-6 mice per group.
CH-induced pulmonary hypertension was produced in mice by exposing them to CH (FIO2 10%) or room air for 3 weeks. During the last 10 days of exposure, PB141 (25 mg/kg) or vehicle (saline) was nebulized and delivered to cage air via a micropump nebulizer. Twenty-four hours following the last nebulization lung samples were obtained. Graphs show medial wall thickness of a-SMA-positive acinar blood vessels and percent of non-muscularized, partially muscularized, and fully muscularized small vessels. Data are representative of one of two independent experiments with n=4-6 mice per group.
Pulmonary hypertension was induced in mice by exposing them to chronic hypoxia (FiO2 10%) for 3 weeks. Control mice breathed room air during the last 10 days of exposure, PB141 (25 mg/kg) or vehicle (saline) was nebulized into the cage air for 30 min via a nebulizer.
Twenty-four hours following the last PB141 administration, mice were anesthetized, and the right internal jugular vein of each mouse was surgically exposed and cannulated with a pressure transducer that was advanced to record right ventricular systolic pressure (RVSP), which is elevated in pulmonary hypertension. […] The heart was then excised and the right ventricle was separated from the left ventricle (including the septum). Each ventricle was weighted separately.
Twenty-four hours following the last PB141 administration, lung samples were obtained. Immunostaining for α-SMA, a key marker in pulmonary hypertension, was performed in paraffin sections of lung and the sections were examined microscopically. […] All these measures of vascular wall remodeling in small pulmonary vessels, the pathophysiology underlying pulmonary hypertension, were reduced by PB141 treatment (FIG. 20).

[3] = system: bronchial epithelial cells, THP cells, and alveolar macrophages; test: Cigarette smoke extract exposure of cultured cells; type: cell-based, humans and mice; conditions: pretreated 1 to 5 μM, then 10% cigarette smoke extract
Protocol: For further in vitro studies, bronchial epithelial cells, THP cells (obtained from American Type Culture Collection), and alveolar macrophages (isolated from bronchial lavage fluid of humans and mice) were cultured and exposed to 10% cigarette smoke extract (CSE) prepared by smoking two cigarettes into RPMI medium according to the Federal Trade Commission (FTC) protocol. In some experiments cells were pretreated with 1 to 5 μM PB141 before the cigarette smoke extract treatment. Pretreatment with PB141 decreased epithelial cell permeability, inflammatory chemokine and cytokine production, and ROS generation.

[4] = system: LPS-induced acute lung injury in mice; test: LPS-induced acute lung injury model; type: in vivo; conditions: 25 mg/kg nebulized 30 min after LPS
Protocol: Induction of ALI by intratracheal injection of LPS (50 μg) was followed 30 min later by nebulization of PB141 (25 mg/kg) or vehicle (saline) and delivery to cage air via a micropump nebulizer. After a further 5.5 h, BAL fluid, plasma, and lung samples were obtained. (A) Total cell and (B) neutrophil number in BAL fluid; myeloperoxidase activity in (C) lung tissue and (D) BAL fluid; (E) microscopic examination following staining of BAL fluid; (F) H2O2 production; (G) nitrate concentration, and (H) malonyldialdehyde/protein ratio in lung. Plasma levels of (I) MIP-2, (J) IL-6, (K) TNF-α, and (L) KC. Data are representative of one of two independent experiments with n=5-8 mice per group; *** p<0.001.
Induction of ALI by intratracheal injection of LPS (50 μg) was followed 30 min later by nebulization of PB141 (25 mg/kg) or vehicle (saline) and delivery to cage air via a micropump nebulizer. After a further 5.5 h, BAL fluid and lung samples were obtained. (A) Protein concentration in BAL fluid. (B) Ratio of lung wet:dry weight. (C) Histological examination of the lung following H&E staining. Data are representative of one of two independent experiments with n=5-8 mice per group; *** p<0.001.
Induction of ALI by intratracheal injection of LPS (50 μg) was followed 30 min later by nebulization of PB141 (25 mg/kg) or vehicle (saline) and delivery to cage air via a micropump nebulizer. After another 5.5 h lungs were excised and DNA-binding activity of the transcription factor Nrf2 was determined. Data is representative of one of two independent experiments with n=4-6 mice per group; *** p<0.001.
Acute lung injury was induced by intratracheal injection of endotoxin (lipopolysaccharide; LPS) prepared from Escherichia coli 0111:B6 (Sigma-Aldrich; St. Louis, Mo.) into anesthetized mice. In other experiments, systemic sepsis was induced by intraperitoneal injection of endotoxin. Thirty minutes later PB141 (25 mg/kg) or vehicle (saline) was delivered to mice for 30 minutes via a micropump nebulizer (Buxco Research Systems, Wilmington, N.C.) fitted at the chamber inlet. Extent of lung injury after 5.5 h and systemic sepsis after 12 h were assessed by measuring lung tissue myeloperoxidase activity, polymorphonuclear neutrophil (PMN) count in bronchoalveolar lavage fluid, lung vascular permeability, pulmonary edema, and cytokine generation. Lung histology sections were assessed microscopically for evidence of inflammation and injury following hematoxylin and eosin (H&E) staining.

PMNs = test: PMN adhesion and transendothelial migration, cells of endotoxin-treated mice; type: in vivo; conditions: PMNs from peripheral blood of endotoxin-treated mice
Protocol: For additional in vitro studies, after the treatment described above alveolar macrophages were isolated from the BAL fluid and plated in DMEM+10% FBS. After 1 h, RNA was isolated and expression of the different genes was determined using real-time PCR; results were normalized to values for the housekeeping genes glyceraldehyde-3-phosphate dehydrogenase (GAPDH) and […]. […] In other experiments, PMNs were isolated from peripheral blood of endotoxin-treated mice by hetastarch exchange transfusion. PMN adhesion was assessed with the Cytoselect Leukocyte-Endothelium Adhesion Assay kit (CBA-210; Cell Biolabs) and transendothelial PMN migration was determined with the Cytoselect Leukocyte Transmigration Assay kit (CBA-212; Cell Biolabs).

## CC(=O)N[C@@H](CSC(CC(=O)CC(SC[C@H](NC(C)=O)C(=O)O)c1cnccn1)c1cnccn1)C(=O)O (stereo partly drawn) [PB141]
[1]
  Cytokine generation: inhibited
  NO production: inhibited
  iNOS expression: inhibited
[2]
  Increase in ratio of right ventricular weight to left ventricle plus septum: significantly reduced
  Increase in right ventricular systolic pressure (RVSP): significantly smaller
  Measures of vascular wall remodeling (α-SMA-positive vessels, muscularization, median wall thickness): reduced
  Pulmonary arterial pressure: significantly smaller
  Pulmonary vascular resistance: significantly smaller
[3]
  Inflammatory chemokine and cytokine production: decreased
  Phagocytic ability of mouse and human alveolar macrophages: improved
  ROS generation: decreased
[4]; 5.5 h
  Cytokine generation (plasma MIP-2, IL-6, TNF-α, KC): reduced
  Edema (lung wet:dry weight): reduced
  Lung Nrf2 DNA-binding activity after LPS: reverses the LPS-induced decrease
  Lung myeloperoxidase activity: decreased
  Oxidant stress (H2O2, nitrate, malonyldialdehyde): reduced
  PMN count in BAL fluid: decreased
  PMN infiltration into the alveolar space: effectively prevented
[4]; H&E
  Lung injury seen histologically: Decreased lung injury
PMNs
  PMN adhesion: decreased
  Transendothelial PMN migration: decreased
